Experimental data as given in the supplement of paper PMC10307832.

Key:
Assay in all cases: relative viability (nuclei count vs DMSO), 5 days (fraction); higher = more cells survive
A-427 = test system: A-427
In short: (§1)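 Values are medians from duplicate plates. Each reflects relative viability, defined as the nuclei count of treated wells over that of vehicle wells. Lung cancer cell lines in 1536-well plates were pin-tool dosed one day after seeding with one drug alone or with a fixed anchor-drug dose plus five library-drug doses (not always all listed) in √10 steps, then fixed, stained and imaged at 4× after 5 days.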

ABC-1 = test system: ABC-1
In short: as §1

EPLC-272H = test system: EPLC-272H
In short: as §1

HCC-15 = test system: HCC-15
In short: as §1

LC-2-ad = test system: LC-2-ad
In short: as §1

LK-2 = test system: LK-2
In short: as §1

NCI-H1734 = test system: NCI-H1734
In short: as §1

NCI-H1793 = test system: NCI-H1793
In short: as §1

NCI-H1915 = test system: NCI-H1915
In short: as §1

NCI-H1944 = test system: NCI-H1944
In short: as §1

NCI-H2009 = test system: NCI-H2009
In short: as §1

NCI-H2023 = test system: NCI-H2023
In short: as §1

Cc1cn(-c2cc(NC(=O)c3ccc(C)c(Nc4nccc(-c5cccnc5)n4)c3)cc(C(F)(F)F)c2)cn1 [Nilotinib] + O=C(c1cc(Cc2n[nH]c(=O)c3ccccc23)ccc1F)N1CCN(C(=O)C2CC2)CC1 [Olaparib] (partner 8 µM)
relative viability (A-427; first compound 0.001 µM): 0.76
relative viability (A-427; first compound 0.003162 µM): 0.874
relative viability (A-427; first compound 0.01 µM): 0.86
relative viability (A-427; first compound 0.03162 µM): 0.804
relative viability (A-427; first compound 0.1 µM): 0.936
relative viability (ABC-1; first compound 0.001 µM): 0.671
relative viability (ABC-1; first compound 0.003162 µM): 0.873
relative viability (ABC-1; first compound 0.01 µM): 0.778
relative viability (ABC-1; first compound 0.03162 µM): 0.828
relative viability (ABC-1; first compound 0.1 µM): 0.673
relative viability (EPLC-272H; first compound 0.001 µM): 0.605
relative viability (EPLC-272H; first compound 0.003162 µM): 0.746
relative viability (EPLC-272H; first compound 0.01 µM): 0.696
relative viability (EPLC-272H; first compound 0.03162 µM): 0.448
relative viability (EPLC-272H; first compound 0.1 µM): 0.513
relative viability (HCC-15; first compound 0.001 µM): 0.612
relative viability (HCC-15; first compound 0.003162 µM): 0.778
relative viability (HCC-15; first compound 0.01 µM): 0.734
relative viability (HCC-15; first compound 0.03162 µM): 0.692
relative viability (HCC-15; first compound 0.1 µM): 0.638
relative viability (LC-2-ad; first compound 0.001 µM): 0.686
relative viability (LC-2-ad; first compound 0.003162 µM): 0.755
relative viability (LC-2-ad; first compound 0.01 µM): 0.689
relative viability (LC-2-ad; first compound 0.03162 µM): 0.874
relative viability (LC-2-ad; first compound 0.1 µM): 0.594
relative viability (LK-2; first compound 0.001 µM): 0.673
relative viability (LK-2; first compound 0.003162 µM): 0.947
relative viability (LK-2; first compound 0.01 µM): 0.839
relative viability (LK-2; first compound 0.03162 µM): 0.453
relative viability (LK-2; first compound 0.1 µM): 0.681
relative viability (NCI-H1734; first compound 0.001 µM): 0.576
relative viability (NCI-H1734; first compound 0.003162 µM): 0.656
relative viability (NCI-H1734; first compound 0.01 µM): 0.689
relative viability (NCI-H1734; first compound 0.03162 µM): 0.543
relative viability (NCI-H1734; first compound 0.1 µM): 0.497
relative viability (NCI-H1793; first compound 0.001 µM): 0.863
relative viability (NCI-H1793; first compound 0.003162 µM): 0.822
relative viability (NCI-H1793; first compound 0.01 µM): 1.13
relative viability (NCI-H1793; first compound 0.03162 µM): 0.706
relative viability (NCI-H1793; first compound 0.1 µM): 0.677
relative viability (NCI-H1915; first compound 0.003162 µM): 0.267
relative viability (NCI-H1915; first compound 0.01 µM): 0.244
relative viability (NCI-H1915; first compound 0.03162 µM): 0.255
relative viability (NCI-H1915; first compound 0.1 µM): 0.187
relative viability (NCI-H1944; first compound 0.001 µM): 0.379
relative viability (NCI-H1944; first compound 0.003162 µM): 0.397
relative viability (NCI-H1944; first compound 0.01 µM): 0.462
relative viability (NCI-H1944; first compound 0.03162 µM): 0.435
relative viability (NCI-H1944; first compound 0.1 µM): 0.45
relative viability (NCI-H2009; first compound 0.001 µM): 0.588
relative viability (NCI-H2009; first compound 0.003162 µM): 0.667
relative viability (NCI-H2009; first compound 0.01 µM): 0.621
relative viability (NCI-H2009; first compound 0.03162 µM): 0.599
relative viability (NCI-H2009; first compound 0.1 µM): 0.9
relative viability (NCI-H2023; first compound 0.001 µM): 0.429
relative viability (NCI-H2023; first compound 0.003162 µM): 0.486
